Tests used:
[1] = system: HeLa cells; experiment: Western blotting (PARP cleavage, apoptosis); format: cell-based; details: by 24-hour post-treatment
Protocol: Exponentially growing cells were collected by centrifugation at 1,100 rpm (Allegra™ X-12 centrifuge, Beckman Coulter) at scheduled time points post-treatment. Cells were washed three times with PBS by centrifugation under the same conditions, followed by cell lysis for 10-15 minutes on ice in 100 μl Lysis buffer (150 mM NaCl, 5 mM EDTA, 1% triton X-100, 10 mM tris pH 7.4, 1 mM PMSF, 5 mM EDTA and 5 mM protease inhibitor). Cell extracts were centrifuged at 11,000 rpm (Allegra™ X-12 centrifuge, Beckman Coulter) for 10 minutes at 4° C. Supernatant was collected and the protein concentration was measured using a BCA assay kit according to the supplier's specifications (Thermo Fisher Scientific, Waltham, Mass.). Cell lysates were then diluted with 2× Iaemmli sample buffer and boiled for 5 minutes at 95-100° C. 30-40 μg protein was loaded on 8% or 10% polyacrylamide gel and resolved by electrophoresis. Proteins were then electronically transferred to a PVDF membrane for 75 minutes at 24 volts, followed by “blocking” with 5% skim milk for 1 hour. Proteins were incubated with primary antibody overnight at 4° C. in 0.1% TBST buffer containing 5% skim milk. The membrane was washed three times with 0.1% TBST buffer and incubated for 1 hour with secondary antibody in TBST buffer containing 5% skim milk. […]

[2] = system: MCF-7; experiment: SRB-based cytotoxicity assay; format: cell-based, human; details: Homo sapiens, MCF7; MCF-7; SRB; Table 2
Protocol: (§1) For (anti)proliferation assays, 4,000-5,000 cells/well of the 96-well clustered dish were incubated for 16 hours, as described previously (Hu et al., 2008; Skehan et al., 1990). After 16 hours, culture medium was replaced with fresh medium containing different dilutions of test compounds dissolved in DMSO. Some wells were treated with 100 μl of 10% trichloroacetic acid (TCA) as a negative control and sham (medium with dimethyl sulfoxide; DMSO) treated cells were used as a positive control. After 72 hours post-incubation, medium was removed and cells were fixed with 10% TCA at 4° C. for 1 hour. TCA was removed and cells were washed with cold tap water, and plate was air-dried, followed by addition of 50 μl of 0.4% SRB staining solution to each well. After 30 minutes incubation, SRB staining solution was removed. Cells were washed with 1% acetic acid solution, and then washed with tap water to remove unbound staining solution, followed by air-drying. 200 μl of 10 mM (pH10.5) trizma base buffer was added to each well to solubilise macromolecules. SRB stained macromolecules were determined at a 540 nm wavelength using an automated plate reader (Synergy H4 Hybrid Multi-Mode Microplate Reader, BioTek, Winooski, Vt.). Cell growth (inhibition) was calculated by the following formula:
(§2) % cells proliferation=[(AT−CT)/(ST−CT)]×100
(§3) wherein AT=absorbance of treated cells, CT=absorbance of negative control cells, and ST=absorbance of sham treated cells. IC50 values were calculated from sigmoidal dose-response curves generated by two independent biological replicates, with quadruplicate in each set by using Graph Pad Prism v.5.04 software. […] The combinational index (CI) was calculated as described previously (Chou 2006). If the CI values were less than, equal to or more than 1, it indicates a synergistic, additive or antagonistic effect respectively (Chou 2006). CI values were determined from four independent experiments.

[3] = system: MDA-MB-231; experiment: SRB-based cytotoxicity assay; format: cell-based, human; details: for IC50: Homo sapiens, MDA-MB-231, SRB, Table 2; for Cell survival rate: MDA-MB231
Protocol: as §1, §2, §3

[4] = system: MDA-MB-468; experiment: SRB-based cytotoxicity assay; format: cell-based, human; details: for IC50: Homo sapiens, MDA-MB-468, SRB, Table 2
Protocol: as §1, §2, §3

[5] = system: HeLa; experiment: Immunofluorescent staining: centrosomes and chromosome segregation; format: cell-based; details: for ACS (abnormal chromosome segregation) / Monopolar centrosome: 3 μM
Protocol: Cells on coverslips placed on the bottom of 35 mm tissue culture plates or 6-well clustered dishes were treated for 12-24 hours with the CTR compounds to be tested. Subsequently, the cells were fixed with 100% methanol for 15 minutes and washed with 1×PBS three times. Cells were then “blocked” with 3% BSA or 1% (v/v) FBS plus 1×PBST (1×PBS buffer containing 0.1% (v/v) Triton X-100 or 0.2% Tween 20), and incubated overnight at 4° C. with primary antibodies, with gentle agitation. Unbound primary antibodies were washed off with PBST, and a secondary antibody was added for 1 hour in the dark. Secondary antibodies were conjugated to Alexa 488 or 568. DNA was counterstained with DRAQ5 or DAPI. Subsequently, coverslips were washed three times with 1×PBST for 10 minutes each, followed by mounting them onto slides with 90% glycerol in 1×PBS. Each slide was visualized with a Carl Zeiss 510 Meta laser scanning microscope or an Axioscope. Image analysis was done with an LSM image examiner equipped with the microscopes (Carl Zeiss, Toronto, ON, Canada).
The cancer-specific increase of mitotic cells in response to CTR-17 was correlated with the accumulation of cells with monopolar centrosomes and abnormal chromosome alignment/segregation (FIG. 11, Table 5). Cells were either sham-treated or treated with 3.0 μM CTR-17 for 12 hours or 24 hours, followed by analyses of cell cycle progression, centrosome abnormalities, and chromosome alignment/segregation. […] The mitotic index was determined by fluorescence microscopic analysis of at least 200 cells for each cell type, and data was expressed as percentage mean±S.E.M. of at least two independent experiments.
Asynchronously growing cells were treated with 1 μM CTR-20 for 24 hours, followed by examining cells arrested in mitosis. The percentage of mitotic cells was calculated based on the examination of at least 250-400 cells. Cells treated with 1 μM CTR-20 for 24 hours on coverslips were fixed with ice-cold methanol, immunostained with an α-tubulin antibody, and then counterstained DNA with DRAQ5 prior to observing by florescent microscopy (Table 6). […] Similarly, cells treated with 1 μM CTR-20 accumulated monopolar centrosomes and defective chromosomal alignment and segregation in a cancer-specific manner.

[6] = target: T1, tubulin (colchicine-binding site) (Sus scrofa, UniProt P02550+P02554); experiment: Colchicine competition assay; set-up: species or system porcine; details: colchicine 1.0-8.0 μM
T1 construct: purchased Cytoskeleton Inc. (Denver, Colo.) T240

For `CCOc1ccccc1C(=O)/C=C/c1cc2ccccc2[nH]c1=O` [CTR-32, (E)-3-(3-(2-ethoxyphenyl)-3-oxoprop-1-enyl)quinolin-2(1H)-one], the “concentration at which many cells underwent apoptosis (cleavage of PARP)” value [1] was ≥ 30 nM.
`COc1ccccc1C(=O)/C=C/c1cc2ccccc2[nH]c1=O` [CTR-17, (E)-3-(3-(2-Methoxyphenyl)-3-oxoprop-1-enyl)quinolin-2(1H)-one] gave an IC50 [2] of 520 ± 170 nM, an IC50 [3] of 410 ± 20 nM and an IC50 [4] of 150 ± 330 nM. The “preferentially kill cancer over non-cancer cells” value ([4]; MDA-MB-468 versus MCF-10A) was “up to 26 times”, the “ACS (abnormal chromosome segregation)” value ([5]; 12 h post-treatment) was 20.0 ± 4.5% of total mitotic cells and the Monopolar centrosome ([5]; 12 h post-treatment) was 80.0 ± 4.5% of total mitotic cells. The “ACS (abnormal chromosome segregation)” value ([5]; 24 h post-treatment) was 0.0 ± 0.0% of total mitotic cells, the Monopolar centrosome ([5]; 24 h post-treatment) was 100.0 ± 0.0% of total mitotic cells and the “effect on binding of colchicine to tubulin” value [6] was “inhibited the binding of colchicine to tubulin”.
For `COc1ccc2[nH]c(=O)c(/C=C/C(=O)c3ccccc3OC)cc2c1` [CTR-20, (E)-6-Methoxy-3-(3-(2-methoxyphenyl)-3-oxoprop-1-enyl) quinolin-2(1H)-one], the IC50 [2] was 140 ± 60 nM, the IC50 [3] was 120 ± 90 nM and the Cell survival rate ([3]; single agent 0.1 μM) was 70.86 ± 4.17. The Cell survival rate ([3]; single agent 0.2 μM) was 41.07 ± 4.58, the Cell survival rate ([3]; single agent 0.4 μM) was 26.38 ± 4.73 and the IC50 [4] was 120 ± 20 nM. The “ACA/S (%) (abnormal chromosome alignment and segregation)” value ([5]; 1 μM, 24 hours) was 34.97 ± 1.96%, the “Monopolar (%)” value ([5]; 1 μM, 24 hours) was 48.13 ± 3.34% and the “effect on binding of colchicine to tubulin” value [6] was “inhibited the binding of colchicine to tubulin”.
`COc1ccccc1C(=O)/C=C/c1cc2cccc(OC)c2[nH]c1=O` [CTR-21, (E)-8-methoxy-3-(3-(2-methoxyphenyl)-3-oxoprop-1-enyl) quinolin-2(1H)-one] was tested, and the “concentration at which many cells underwent apoptosis (cleavage of PARP)” value [1] was ≥ 15 nM.
